Laboratory results as given in publication PMC10598672, “A hybrid energy-based and AI-based screening approach for the discovery of novel inhibitors of JAK3” (Frontiers in Medicine, 2023).

Assays:
JAK3 [1] = biological target: T1, JAK3 (Homo sapiens, UniProt P52333); assay: HTRF kinase assay, inhibition rate at […]; assay type: biochemical; conditions: read-out: Inhibit rate (%)
T1 sequence (P52333 1-1124): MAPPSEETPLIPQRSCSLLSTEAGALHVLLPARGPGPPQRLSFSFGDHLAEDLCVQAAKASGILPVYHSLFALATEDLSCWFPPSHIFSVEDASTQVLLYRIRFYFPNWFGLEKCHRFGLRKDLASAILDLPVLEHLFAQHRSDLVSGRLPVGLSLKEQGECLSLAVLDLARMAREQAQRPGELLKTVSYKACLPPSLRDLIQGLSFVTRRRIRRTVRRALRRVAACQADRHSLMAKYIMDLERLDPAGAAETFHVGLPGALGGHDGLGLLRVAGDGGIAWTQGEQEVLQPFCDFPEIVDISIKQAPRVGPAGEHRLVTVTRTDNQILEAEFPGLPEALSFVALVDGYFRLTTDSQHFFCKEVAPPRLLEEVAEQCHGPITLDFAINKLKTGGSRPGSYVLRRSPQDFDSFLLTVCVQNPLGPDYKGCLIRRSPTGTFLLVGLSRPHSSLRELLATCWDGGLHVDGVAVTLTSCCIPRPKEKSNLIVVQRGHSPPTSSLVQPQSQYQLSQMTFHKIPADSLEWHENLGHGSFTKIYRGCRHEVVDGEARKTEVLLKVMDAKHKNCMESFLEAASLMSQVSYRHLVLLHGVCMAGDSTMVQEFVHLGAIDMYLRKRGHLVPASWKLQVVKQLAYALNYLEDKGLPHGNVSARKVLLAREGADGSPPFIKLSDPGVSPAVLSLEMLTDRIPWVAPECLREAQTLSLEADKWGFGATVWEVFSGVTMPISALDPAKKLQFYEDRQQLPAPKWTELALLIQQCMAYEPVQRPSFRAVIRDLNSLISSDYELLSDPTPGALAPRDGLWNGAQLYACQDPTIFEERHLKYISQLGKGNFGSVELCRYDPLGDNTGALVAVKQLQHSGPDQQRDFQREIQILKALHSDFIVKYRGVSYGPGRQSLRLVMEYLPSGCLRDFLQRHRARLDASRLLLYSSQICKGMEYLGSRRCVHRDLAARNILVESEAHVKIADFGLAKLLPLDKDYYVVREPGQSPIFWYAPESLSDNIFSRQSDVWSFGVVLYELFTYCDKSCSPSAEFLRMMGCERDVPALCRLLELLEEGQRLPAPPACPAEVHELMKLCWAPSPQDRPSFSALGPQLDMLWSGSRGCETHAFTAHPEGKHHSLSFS

JAK3 [2] = biological target: T1, JAK3; assay: HTRF kinase assay (Cryptate/XL665), dose-response IC50; assay type: biochemical

Structure (SMILES)	inhibition at 25 µM (JAK3 [1]) [%]	IC50 (JAK3 [2]) [µM]
CN1CCC(Nc2nc(Nc3ccc(Oc4ccccc4)cc3)c3c(=O)[nH]cc(Br)c3n2)CC1 [compound 4]	93.37 ± 0.01	
CN1CCN(c2ccc(Nc3ncc4cc(C#N)c(=O)n(C5CCCC5)c4n3)cc2)CC1 [compound 5]	75.2 ± 0.85	
CC(=O)Nc1cc(Oc2ccc3c(C(=O)Nc4ccc(CN5CCN(C)CC5)c(C(F)(F)F)c4)cccc3c2)ncn1 [compound 8]		4.11
